Measured values as given in US4643734A, “Lactide/caprolactone polymer, method of making the same, composites thereof, and prostheses produced therefrom” (Hexcel Corporation, priority 1983, dated 1987).

What was measured:
Assay type in all cases: cell-based
[1] = system: Salmonella typhimurium TA 98; experiment: Ames plate incorporation assay, TA98
Protocol: (§1) A Salmonella/mammalian mutagenicity test was performed to determine if a saline extract of the polymer would cause mutagenic changes in histidine dependent mutant strains of Salmonella typhimurium. The method of Ames et al as reported in Methods for Detecting Carcinogens and Mutagens with the Salmonella/Mammalian Mutagenicity Test (1975) was employed.
(§2) Test sample--a polymer, saline (0.85%) extract was prepared by adding 4 grams of sample to 20 ml of saline and autoclaving at 121° C. for one hour.
(§3) Bacterial test strains--four strains of specially constructed histidine mutants of Salmonella typhimurium, TA 98, TA 100, TA 1535 and TA 1537, developed by Dr. B. Ames, University of California, Berkeley were employed.
(§4) Activation system--S-9 Activation Mix is composed mainly of the microsomal fraction from a rat liver homogenate. The S-9 mix was used for the detection of mutagenic properties that require metabolic biotransformation to their active mutagenic form. […]
(§5) Ames plate incorporation assay--the principle technique of the Ames test consists of a plate incorporation assay from which direct revertant colony counts are obtained from the test plates. […] Following a 48 hour incubation period at 30° C., the number of colonies in each test plate are recorded as revertant colonies for comparison with spontaneous revertant rates for each strain.

[2] = system: Salmonella typhimurium TA 100; experiment: Ames plate incorporation assay, TA100
Protocol: as §1, §2, §3
Activation system--S-9 Activation Mix is composed mainly of the microsomal fraction from a rat liver homogenate. The S-9 mix was used for the detection of mutagenic properties that require metabolic biotransformation to their active mutagenic form. S-9 mix employed was Aroclor 1254--induced(Litton Bionetics, Inc., Kensington, Md., Lot #REL 091).
Negative controls--the solvent elution vehicle was test with each bacterial strain to determine the number of spontaneous revertant colonies for each test population.
MDA requires metabolic activation to induce mutagenic results; therefore, it was tested (on strain TA 100 only) with and without S-9 mix to verify the bioactivation properties of the S-9 rat liver preparation.
Ames plate incorporation assay--the principle technique of the Ames test consists of a plate incorporation assay from which direct revertant colony counts are obtained from the test plates. Minimal nutrient agar plates are seeded with both a tester strain population and the test solution suspended together in a semi-solid overlay. Test plates are prepared providing for either the presence or absence of S-9 activation mix supplemented in the overlay. Following a 48 hour incubation period at 30° C., the number of colonies in each test plate are recorded as revertant colonies for comparison with spontaneous revertant rates for each strain.

[3] = system: Salmonella typhimurium TA 1535; experiment: Ames plate incorporation assay, TA1535
Protocol: as §1, §2, §3, §4, §5

[4] = system: Salmonella typhimurium TA 1537; experiment: Ames plate incorporation assay, TA1537
Protocol: as §1, §2, §3, §4, §5

Compound | Number of Revertant Colonies (Average of Duplicate Plates) ([1]; TA98, w/S-9) | Number of Revertant Colonies (Average of Duplicate Plates) ([1]; TA98, without S-9) | Number of Revertant Colonies (Average of Duplicate Plates) ([2]; TA100, w/S-9) | Number of Revertant Colonies (Average of Duplicate Plates) ([2]; TA100, without S-9) | Number of Revertant Colonies (Average of Duplicate Plates) ([3]; TA1535, w/S-9) | Number of Revertant Colonies (Average of Duplicate Plates) ([3]; TA1535, without S-9) | Number of Revertant Colonies (Average of Duplicate Plates) ([4]; TA1537, w/S-9) | Number of Revertant Colonies (Average of Duplicate Plates) ([4]; TA1537, without S-9)
CN(C)c1ccc(N=NS(=O)(=O)[O-])cc1.[Na+] [Dexon] | 430.0 | 422.0 | 388.5 | 377.0 | 26.5 | 28.0 | 230.0 | 216.0
Nc1ccc(Cc2ccc(N)cc2)cc1 [MDA, methylene dianiline] |  |  | 223.0 | 73.0 |  |  |  | 
